From PubChem BioAssay (NCI)
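48-hour exposure; five concentrations; linearly interpolated endpoints. The concentration for 50% growth inhibition is given as GI50. The concentration for full growth arrest is given as TGI.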

Key:
Assay in all cases: NCI anticancer screen, dose series, 48 h
786-0 renal = test system: 786-0 renal
A498 renal = test system: A498 renal
A549 NSCLC = test system: A549 NSCLC
ACHN renal = test system: ACHN renal
BT-549 breast = test system: BT-549 breast
CAKI-1 renal = test system: CAKI-1 renal
CCRF-CEM leukemia = test system: CCRF-CEM leukemia
COLO 205 colon = test system: COLO 205 colon
DU-145 prostate = test system: DU-145 prostate
EKVX NSCLC = test system: EKVX NSCLC
HCC-2998 colon = test system: HCC-2998 colon
HCT-116 colon = test system: HCT-116 colon
HCT-15 colon = test system: HCT-15 colon
HL-60(TB) leukemia = test system: HL-60(TB) leukemia
HOP-62 NSCLC = test system: HOP-62 NSCLC
HOP-92 NSCLC = test system: HOP-92 NSCLC
HS 578T breast = test system: HS 578T breast
HT29 colon = test system: HT29 colon
IGROV1 ovarian = test system: IGROV1 ovarian
K-562 leukemia = test system: K-562 leukemia
KM12 colon = test system: KM12 colon
LOX IMVI melanoma = test system: LOX IMVI melanoma
M14 melanoma = test system: M14 melanoma
MALME-3M melanoma = test system: MALME-3M melanoma
MCF7 breast = test system: MCF7 breast
MDA-MB-231 breast = test system: MDA-MB-231 breast
MDA-MB-435 = test system: MDA-MB-435
MOLT-4 leukemia = test system: MOLT-4 leukemia
NCI-H226 lung = test system: NCI-H226 lung
NCI-H23 lung = test system: NCI-H23 lung
NCI-H460 lung = test system: NCI-H460 lung
NCI-H522 lung = test system: NCI-H522 lung
NCI/ADR-RES ovarian = test system: NCI/ADR-RES ovarian
OVCAR-3 ovarian = test system: OVCAR-3 ovarian
OVCAR-4 ovarian = test system: OVCAR-4 ovarian
OVCAR-5 ovarian = test system: OVCAR-5 ovarian
OVCAR-8 ovarian = test system: OVCAR-8 ovarian
PC-3 prostate = test system: PC-3 prostate
RPMI-8226 leukemia = test system: RPMI-8226 leukemia
RXF 393 renal = test system: RXF 393 renal
SF-268 CNS = test system: SF-268 CNS
SF-295 CNS = test system: SF-295 CNS
SF-539 CNS = test system: SF-539 CNS
SK-MEL-2 melanoma = test system: SK-MEL-2 melanoma
SK-MEL-28 melanoma = test system: SK-MEL-28 melanoma
SK-MEL-5 melanoma = test system: SK-MEL-5 melanoma
SK-OV-3 ovarian = test system: SK-OV-3 ovarian
SN12C renal = test system: SN12C renal
SNB-19 CNS = test system: SNB-19 CNS
SNB-75 CNS = test system: SNB-75 CNS
SR leukemia = test system: SR leukemia
SW-620 colon = test system: SW-620 colon
T-47D breast = test system: T-47D breast
TK-10 renal = test system: TK-10 renal
U251 CNS = test system: U251 CNS
UACC-257 melanoma = test system: UACC-257 melanoma
UACC-62 melanoma = test system: UACC-62 melanoma
UO-31 renal = test system: UO-31 renal

With CN1CCN(c2ccc(Nc3nc(NCCNS(=O)(=O)c4ccc5ccccc5c4)c4sccc4n3)cc2)CC1 the GI50 (786-0 renal) was 2.69 µM, the TGI (786-0 renal) was 8.16 µM and the GI50 (A498 renal) was 19.2 µM. It also gave a TGI (A498 renal) of 34 µM, a GI50 (A549 NSCLC) of 9.03 µM and a TGI (A549 NSCLC) of 26.8 µM. For the same compound, the GI50 (ACHN renal) was 8.51 µM, the TGI (ACHN renal) was 20.7 µM and the GI50 (BT-549 breast) was 12.4 µM. For the same compound, the TGI (BT-549 breast) was 24.9 µM, the GI50 (CAKI-1 renal) was 3.87 µM and the TGI (CAKI-1 renal) was 15.2 µM. The GI50 (CCRF-CEM leukemia) was 3.52 µM, the TGI (CCRF-CEM leukemia) was 13.9 µM and the GI50 (COLO 205 colon) was 2.22 µM. It also gave a TGI (COLO 205 colon) of 4.99 µM, a GI50 (DU-145 prostate) of 12 µM and a TGI (DU-145 prostate) of 25 µM. The GI50 (EKVX NSCLC) was 13 µM, the TGI (EKVX NSCLC) was 26.3 µM and the GI50 (HCC-2998 colon) was 3.34 µM. The TGI (HCC-2998 colon) was 12.5 µM, the GI50 (HCT-116 colon) was 2.21 µM and the TGI (HCT-116 colon) was 5.64 µM. The GI50 (HCT-15 colon) was 2.31 µM, the TGI (HCT-15 colon) was 5.59 µM and the GI50 (HL-60(TB) leukemia) was 1.99 µM. For the same compound, the TGI (HL-60(TB) leukemia) was 4.04 µM, the GI50 (HOP-62 NSCLC) was 15 µM and the TGI (HOP-62 NSCLC) was 29.2 µM. The GI50 (HOP-92 NSCLC) was 3.31 µM, the TGI (HOP-92 NSCLC) was 16.1 µM and the GI50 (HS 578T breast) was 14.1 µM. It also gave a TGI (HS 578T breast) of 46.8 µM, a GI50 (HT29 colon) of 3.31 µM and a TGI (HT29 colon) of 12.3 µM. The GI50 (IGROV1 ovarian) was 11 µM, the TGI (IGROV1 ovarian) was 23.4 µM and the GI50 (K-562 leukemia) was 2.27 µM. It also gave a TGI (K-562 leukemia) of 7.15 µM, a GI50 (KM12 colon) of 16.2 µM and a TGI (KM12 colon) of 35.7 µM. The GI50 (LOX IMVI melanoma) was 1.75 µM, the TGI (LOX IMVI melanoma) was 3.36 µM and the GI50 (M14 melanoma) was 1.88 µM. It also gave a TGI (M14 melanoma) of 3.4 µM, a GI50 (MALME-3M melanoma) of 1.8 µM and a TGI (MALME-3M melanoma) of 3.28 µM. For the same compound, the GI50 (MCF7 breast) was 4.04 µM, the TGI (MCF7 breast) was 15.7 µM and the GI50 (MDA-MB-231 breast) was 3.87 µM. For the same compound, the TGI (MDA-MB-231 breast) was 14.8 µM, the GI50 (MDA-MB-435) was 3.34 µM and the TGI (MDA-MB-435) was 11.8 µM. The GI50 (MOLT-4 leukemia) was 4.55 µM, the TGI (MOLT-4 leukemia) was 24.1 µM and the GI50 (NCI-H226 lung) was 14.2 µM. The TGI (NCI-H226 lung) was 28.3 µM, the GI50 (NCI-H23 lung) was 13.3 µM and the TGI (NCI-H23 lung) was 26.9 µM. The GI50 (NCI-H460 lung) was 12.1 µM, the TGI (NCI-H460 lung) was 27.2 µM and the GI50 (NCI-H522 lung) was 7.16 µM. It also gave a TGI (NCI-H522 lung) of 21.6 µM, a GI50 (NCI/ADR-RES ovarian) of 14.8 µM and a TGI (NCI/ADR-RES ovarian) of 38.3 µM. For the same compound, the GI50 (OVCAR-3 ovarian) was 10.7 µM, the TGI (OVCAR-3 ovarian) was 28.1 µM and the GI50 (OVCAR-4 ovarian) was 10.3 µM. For the same compound, the TGI (OVCAR-4 ovarian) was 28.2 µM, the GI50 (OVCAR-5 ovarian) was 11.5 µM and the TGI (OVCAR-5 ovarian) was 23.7 µM. For the same compound, the GI50 (OVCAR-8 ovarian) was 6.65 µM, the TGI (OVCAR-8 ovarian) was 19.9 µM and the GI50 (PC-3 prostate) was 11.4 µM. The TGI (PC-3 prostate) was 31.1 µM, the GI50 (RPMI-8226 leukemia) was 2.46 µM and the TGI (RPMI-8226 leukemia) was 6.18 µM. The GI50 (RXF 393 renal) was 2.33 µM, the TGI (RXF 393 renal) was 6.58 µM and the GI50 (SF-268 CNS) was 11.5 µM. It also gave a TGI (SF-268 CNS) of 30.2 µM, a GI50 (SF-295 CNS) of 11.8 µM and a TGI (SF-295 CNS) of 24.1 µM. It also gave a GI50 (SF-539 CNS) of 1.91 µM, a TGI (SF-539 CNS) of 4.05 µM and a GI50 (SK-MEL-2 melanoma) of 19.6 µM. It also gave a TGI (SK-MEL-2 melanoma) of 36.1 µM, a GI50 (SK-MEL-28 melanoma) of 2.21 µM and a TGI (SK-MEL-28 melanoma) of 5 µM. For the same compound, the GI50 (SK-MEL-5 melanoma) was 3.27 µM, the TGI (SK-MEL-5 melanoma) was 11.3 µM and the GI50 (SK-OV-3 ovarian) was 19.4 µM. The TGI (SK-OV-3 ovarian) was 35.6 µM, the GI50 (SN12C renal) was 13.1 µM and the TGI (SN12C renal) was 26.3 µM. For the same compound, the GI50 (SNB-19 CNS) was 16.3 µM, the TGI (SNB-19 CNS) was 30 µM and the GI50 (SNB-75 CNS) was 11.6 µM. For the same compound, the TGI (SNB-75 CNS) was 24.2 µM, the GI50 (SR leukemia) was 2.57 µM and the TGI (SR leukemia) was 7.42 µM. The GI50 (SW-620 colon) was 6.41 µM, the TGI (SW-620 colon) was 21.8 µM and the GI50 (T-47D breast) was 3.71 µM. The TGI (T-47D breast) was 16.9 µM, the GI50 (TK-10 renal) was 21.5 µM and the TGI (TK-10 renal) was 37.3 µM. The GI50 (U251 CNS) was 3.21 µM, the TGI (U251 CNS) was 12 µM and the GI50 (UACC-257 melanoma) was 1.84 µM. The TGI (UACC-257 melanoma) was 3.56 µM, the GI50 (UACC-62 melanoma) was 11.7 µM and the TGI (UACC-62 melanoma) was 24 µM. It also gave a GI50 (UO-31 renal) of 12.4 µM and a TGI (UO-31 renal) of 25.5 µM.
